The record followed here is patent US10501514B2, “Cyclic galanin-analogs and uses thereof” (LanthioPep B.V., priority 2015, dated 2019).

What all share (type): cell-based
Assay [1] concerns Galanin receptor (GalR1, GalR2). The experiment in a line: Galanin receptor activation assays, overall statements in words. The conditions noted are these: for preference for stimulating GalR2 (over GalR1), in words: GalR2 versus GalR1; for activity, in words: overall statement on galanin receptor activation. The method, then:
(§1) The biological activity of the (lanthi)galanins was determined in CHO-K1 cell lines that express either the GalR1, or GalR2 receptor. Activity measurements were performed using commercial kits from DiscoverX for determining arrestin recruitment (GalR1, GalR2) and inhibition of cAMP synthesis (GalR1). In addition, HEK293 cell lines that express the GalR2 receptor have been used for methods from Molecular Probes to measure calcium efflux (GalR2).
Peptide was dissolved in 0.3% ammonia. Peptides were incubated o/n at 37° C. for the introduction of the lanthionine via base assisted sulfur extrusion of the disulfide bridged peptide. Different isomers could be isolated by HPLC applying the same method as was used as for the biologically produced peptides. Different isomers were purified and lyophilized. Dry peptides were dissolved in 100 mM phosphate buffer pH=7.6 and peptides were incubated o/n at 50° C. After HPLC purification peptides with a pE formation were selected and used in the different Galanin receptor activation assays.

For a further assay, the target named is T1, GalR2 (Homo sapiens, UniProt O43603).
T1 construct: expressed in transfected cells; host or cells: HEK293
T1 sequence (O43603 1-387): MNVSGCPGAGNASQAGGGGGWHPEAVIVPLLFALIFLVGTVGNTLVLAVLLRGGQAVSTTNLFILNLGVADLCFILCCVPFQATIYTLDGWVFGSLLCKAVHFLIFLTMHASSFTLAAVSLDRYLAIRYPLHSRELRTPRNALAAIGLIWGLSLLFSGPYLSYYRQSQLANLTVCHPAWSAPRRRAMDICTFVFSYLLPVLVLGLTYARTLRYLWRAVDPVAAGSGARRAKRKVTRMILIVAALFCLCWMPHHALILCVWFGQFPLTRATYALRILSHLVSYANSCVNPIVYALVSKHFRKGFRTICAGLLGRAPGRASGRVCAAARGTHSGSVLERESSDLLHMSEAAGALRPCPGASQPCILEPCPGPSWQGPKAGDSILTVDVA
The conditions noted are these: for efficacy via GalR2 compared with GalWtb, in words: GalR2, Table 1 data. The method, then:
(§2) ND indicates ‘not determined’.
Peptide was dissolved in 0.3% ammonia. […] Different isomers were purified and lyophilized.

For the next assay, the target named is T2, GalR1 (Homo sapiens, UniProt P47211).
T2 sequence (P47211 1-349): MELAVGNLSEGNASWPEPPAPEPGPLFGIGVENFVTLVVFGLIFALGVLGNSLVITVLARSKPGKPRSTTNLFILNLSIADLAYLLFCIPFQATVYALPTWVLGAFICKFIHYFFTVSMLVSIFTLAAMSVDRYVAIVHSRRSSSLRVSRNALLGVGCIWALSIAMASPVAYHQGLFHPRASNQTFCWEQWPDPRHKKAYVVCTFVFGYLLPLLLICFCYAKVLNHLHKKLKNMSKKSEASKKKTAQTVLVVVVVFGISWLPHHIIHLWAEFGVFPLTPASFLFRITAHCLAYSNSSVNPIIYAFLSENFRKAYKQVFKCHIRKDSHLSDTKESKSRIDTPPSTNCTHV
Put plainly: inhibition of cAMP synthesis in CHO-K1 cells expressing GalR1 (DiscoverX kit). The conditions noted are these: FIG. 3. On the set-up: host or cells: CHO-K1. The method, then: as §1, §2
Peptide was dissolved in 0.3% ammonia. Peptides were incubated o/n at 37° C. for the introduction of the lanthionine via base assisted sulfur extrusion of the disulfide bridged peptide. […] Different isomers were purified and lyophilized. Dry peptides were dissolved in 100 mM phosphate buffer pH=7.6 and peptides were incubated o/n at 50° C. After HPLC purification peptides with a pE formation were selected and used in the different Galanin receptor activation assays.

“Also recorded” adds a separate entry of the source.

Take `CC(C)C[C@H](NC(=O)[C@H](CC(C)C)NC(=O)[C@H](Cc1ccc(O)cc1)NC(=O)CNC(=O)[C@H](C)NC(=O)[C@H](C)NC(=O)[C@H](CC(N)=O)NC(=O)[C@H](CC(C)C)NC(=O)[C@H](CC(N)=O)NC(=O)[C@H](Cc1c[nH]c2ccccc12)NC(=O)[C@@H]1CCC(=O)N1)C(=O)NCC(=O)N1CCC[C@H]1C(=O)N[C@H]1C(=O)N[C@@H](C)C(=O)N[C@@H](C(C)C)C(=O)N[C@H](C(=O)O)CS[C@H]1C` [GalM87]: in assay [1], the “preference for stimulating GalR2 (over GalR1), in words” value (from here on “preference … (over GalR1), in words”) is on record as “preference for stimulating GalR2”.
On to `CC(C)C[C@H](NC(=O)[C@H](CC(C)C)NC(=O)[C@H](Cc1ccc(O)cc1)NC(=O)CNC(=O)[C@H](C)NC(=O)[C@H](C)NC(=O)[C@H](CC(N)=O)NC(=O)[C@H](CC(N)=O)NC(=O)[C@H](CC(N)=O)NC(=O)[C@H](Cc1c[nH]c2ccccc12)NC(=O)CN)C(=O)NCC(=O)N[C@@H](C)C(=O)N[C@H]1C(=O)N[C@@H](C)C(=O)N[C@@H](C(C)C)C(=O)N[C@H](C(=O)N[C@@H](CC(N)=O)C(=O)N[C@@H](Cc2c[nH]cn2)C(=O)N[C@@H](CCCNC(=N)N)C(=O)O)CS[C@H]1C` [GalM94], for which the “efficacy via GalR2 compared with GalWtb, in words” value on GalR2 was “comparable efficacy via GalR2 like GalWtb”.
Turning to `CC(C)C[C@@H]1NC(=O)[C@H](CC(C)C)NC(=O)[C@H](Cc2ccc(O)cc2)NC(=O)[C@H](NC(=O)[C@H](C)NC(=O)[C@H](C)NC(=O)[C@H](CC(N)=O)NC(=O)[C@H](CC(C)C)NC(=O)[C@H](CC(N)=O)NC(=O)[C@H](Cc2c[nH]c3ccccc23)NC(=O)[C@@H]2CCC(=O)N2)CSC[C@@H](C(=O)O)NC1=O` [GalM82], in assay [1], the “activity, in words” value is recorded as “low activity”.
Regarding `CC(C)C[C@H](NC(=O)[C@H](CC(C)C)NC(=O)[C@H](Cc1ccc(O)cc1)NC(=O)CNC(=O)[C@H](C)NC(=O)[C@H](C)NC(=O)[C@H](CC(N)=O)NC(=O)[C@H](CC(C)C)NC(=O)[C@H](CC(N)=O)NC(=O)[C@H](Cc1c[nH]c2ccccc12)NC(=O)[C@@H]1CCC(=O)N1)C(=O)NCC(=O)N[C@@H](C)C(=O)N[C@H]1C(=O)N[C@@H](C)C(=O)N[C@@H](C(C)C)C(=O)N[C@H](C(=O)N[C@@H](CC(N)=O)C(=O)N[C@@H](Cc2c[nH]cn2)C(=O)N[C@@H](CCCNC(=N)N)C(=O)O)CS[C@H]1C` [GalM54], the “β-arrestin recruitment via GalR2, preference in words” value on GalR2 (FIG. 2) was “preferentially stimulates β-arrestin recruitment via GalR2”. Besides, the “preference … (over GalR1), in words” value in assay [1] is “GalR2-specific; also recorded: preference for stimulating GalR2”.
Turning to `CC(C)C[C@H](NC(=O)[C@H](CC(C)C)NC(=O)[C@H](Cc1ccc(O)cc1)NC(=O)CNC(=O)[C@H](C)NC(=O)[C@H](C)NC(=O)[C@H](CC(N)=O)NC(=O)[C@H](CC(C)C)NC(=O)[C@H](CC(N)=O)NC(=O)[C@H](Cc1c[nH]c2ccccc12)NC(=O)CN)C(=O)NCC(=O)N1CCC[C@H]1C(=O)N[C@@H](Cc1c[nH]cn1)C(=O)N[C@H]1C(=O)N[C@@H](C(C)C)C(=O)NCC(=O)N[C@H](C(=O)N[C@@H](Cc2c[nH]cn2)C(=O)N[C@@H](CCCNC(=N)N)C(=O)O)CS[C@H]1C` [GalM52], at GalR1, the “cAMP production via GalR1, in words” value is listed as “inhibit cAMP production via GalR1”.
For the molecule `CC(C)C[C@H](NC(=O)[C@H](CC(C)C)NC(=O)[C@H](Cc1ccc(O)cc1)NC(=O)CNC(=O)[C@H](C)NC(=O)[C@H](C)NC(=O)[C@H](CC(N)=O)NC(=O)[C@H](CC(C)C)NC(=O)[C@H](CC(N)=O)NC(=O)[C@H](Cc1c[nH]c2ccccc12)NC(=O)[C@@H]1CCC(=O)N1)C(=O)NCC(=O)N1CCC[C@H]1C(=O)N[C@@H](Cc1c[nH]cn1)C(=O)N[C@@H](C)C(=O)N[C@H]1C(=O)NCC(=O)N[C@@H](CC(N)=O)C(=O)N[C@H](C(=O)N[C@@H](CCCNC(=N)N)C(=O)O)CS[C@H]1C` [GalM74b], the “preference … (over GalR1), in words” value in assay [1] is “preference for stimulating GalR2”.
In the case of `CC(C)C[C@@H]1NC(=O)[C@H](Cc2ccc(O)cc2)NC(=O)C(NC(=O)[C@H](C)NC(=O)[C@H](C)NC(=O)[C@H](CC(N)=O)NC(=O)[C@H](CC(C)C)NC(=O)[C@H](CC(N)=O)NC(=O)[C@H](Cc2c[nH]c3ccccc23)NC(=O)CN)CSC[C@@H](C(=O)NCC(=O)N2CCC[C@H]2C(=O)N[C@@H](Cc2c[nH]cn2)C(=O)N[C@@H](C)C(=O)N[C@H](C(=O)NCC(=O)N[C@@H](CC(N)=O)C(=O)N[C@@H](Cc2c[nH]cn2)C(=O)N[C@@H](CCCNC(=N)N)C(=O)O)C(C)C)NC(=O)[C@H](CC(C)C)NC1=O` (stereo partly shown) [GalM73], the “activity, in words” value in assay [1] is “retained some activity”.
Take `CC(C)C[C@H](NC(=O)[C@H](CC(C)C)NC(=O)[C@H](Cc1ccc(O)cc1)NC(=O)CNC(=O)[C@H](C)NC(=O)[C@H](C)NC(=O)[C@H](CC(N)=O)NC(=O)[C@H](CC(C)C)NC(=O)[C@H](CC(N)=O)NC(=O)[C@H](Cc1c[nH]c2ccccc12)NC(=O)[C@@H]1CCC(=O)N1)C(=O)N[C@@H](C)C(=O)N[C@H]1C(=O)N[C@@H](Cc2c[nH]cn2)C(=O)N[C@@H](C)C(=O)N[C@H](C(=O)NCC(=O)O)CS[C@H]1C` [GalM89b]: the “preference … (over GalR1), in words” value in assay [1] is on record as “preference for stimulating GalR2”.
Take `CC(C)C[C@@H]1NC(=O)[C@H](CC(C)C)NC(=O)[C@H](Cc2ccc(O)cc2)NC(=O)C(NC(=O)[C@H](C)NC(=O)[C@H](C)NC(=O)[C@H](CC(N)=O)NC(=O)[C@H](CC(C)C)NC(=O)[C@@H](NC(=O)[C@H](Cc2c[nH]c3ccccc23)NC(=O)[C@@H]2CCC(=O)N2)[C@@H](C)O)CSCC(C(=O)O)NC1=O` (single isomer, unassigned) [4179 C, pEWTLNAAlanYLLlan]: the “Ratio EC50s relative to Gal-(1-15), GalR2 Ca efflux” value on GalR2 amounted to 248.
For `CC(C)C[C@H](NC(=O)[C@H](CC(C)C)NC(=O)[C@H](Cc1ccc(O)cc1)NC(=O)CNC(=O)[C@H](C)NC(=O)[C@H](C)NC(=O)[C@H](CC(N)=O)NC(=O)[C@H](CC(C)C)NC(=O)[C@H](CC(N)=O)NC(=O)[C@H](Cc1c[nH]c2ccccc12)NC(=O)[C@@H]1CCC(=O)N1)C(=O)NCC(=O)N[C@@H](C)C(=O)N[C@H]1C(=O)N[C@@H](C)C(=O)N[C@@H](C(C)C)C(=O)N[C@H](C(=O)N[C@@H](CC(N)=O)C(=O)N[C@@H](Cc2c[nH]cn2)C(=O)O)CS[C@H]1C` [GalM54tr], the “preference … (over GalR1), in words” value in assay [1] is on record as “GalR2-specific”.
With `CC(C)C[C@H](NC(=O)[C@H](CC(C)C)NC(=O)[C@H](Cc1ccc(O)cc1)NC(=O)CNC(=O)[C@H](C)NC(=O)[C@H](C)NC(=O)[C@H](CC(N)=O)NC(=O)[C@@H](NC(=O)[C@H](CC(N)=O)NC(=O)[C@H](Cc1c[nH]c2ccccc12)NC(=O)CN)C(C)C)C(=O)NCC(=O)N[C@@H](C)C(=O)N[C@H]1C(=O)N[C@@H](C)C(=O)N[C@@H](C(C)C)C(=O)N[C@H](C(=O)N[C@@H](CC(N)=O)C(=O)N[C@@H](Cc2c[nH]cn2)C(=O)N[C@@H](CCCNC(=N)N)C(=O)O)CS[C@H]1C` [GalM92], the “efficacy via GalR2 compared with GalWtb, in words” value on GalR2 is given as “comparable efficacy via GalR2 like GalWtb”.
For the molecule `CC(C)C[C@H](NC(=O)[C@H](CC(C)C)NC(=O)[C@H](Cc1ccc(O)cc1)NC(=O)CNC(=O)[C@H](C)NC(=O)[C@H](C)NC(=O)[C@H](CC(N)=O)NC(=O)[C@H](CC(C)C)NC(=O)[C@H](CC(N)=O)NC(=O)[C@H](Cc1c[nH]c2ccccc12)NC(=O)[C@@H]1CCC(=O)N1)C(=O)N[C@@H](C)C(=O)N[C@H]1C(=O)N[C@@H](Cc2c[nH]cn2)C(=O)N[C@@H](C)C(=O)N[C@H](C(=O)NCC(=O)N[C@@H](CC(N)=O)C(=O)N[C@@H](Cc2c[nH]cn2)C(=O)N[C@@H](CCCNC(=N)N)C(=O)O)CS[C@H]1C` [GalM50b], the “preference … (over GalR1), in words” value in assay [1] is listed as “preference for stimulating GalR2”.
